{
  "source": "ChEMBL document CHEMBL5053558",
  "about": "“Novel Indole Compounds as TEAD Inhibitors for Treating Cancer” (ACS Med Chem Lett, 2021)",
  "data": [
    {"experiment": "Inhibition of TEAD in human tumour cells assessed as YAP1/TAZ-TEAD modulation incubated for 48 hrs by Bright-Glo luciferase assay", "format": "cell-based", "conditions": "Tumor Cell line", "units": {"IC50": "nM"}, "values": [
      {"smiles": "C=CC(=O)Nc1ccc2c(ccn2Cc2ccc(-c3cccc(C(F)(F)F)c3)cc2)c1", "IC50": 20},
      {"smiles": "C=CC(=O)Nc1ccc2c(c1)cc(C)n2-c1ccc(C(F)(F)F)cc1", "IC50": 12},
      {"smiles": "C=CC(=O)Nc1cc2ccn(Cc3cccc(C(F)(F)F)c3)c2cc1F", "IC50": 18},
      {"smiles": "C=CC(=O)Nc1ccc2c(c1)c(C)cn2-c1ccc(C(F)(F)F)cc1", "IC50": 9},
      {"smiles": "C=CC(=O)Nc1ccc2c(ccn2-c2ccc(C(F)(F)F)cc2)c1", "IC50": 8},
      {"smiles": "C=CC(=O)Nc1ccc2c(c1)c(COC)cn2-c1ccc(C(F)(F)F)cc1", "IC50": 15}
    ]}
  ]
}
